“Also recorded” adds a separate entry of the source.
How the values were obtained:
Type in all cases: in vivo, Male Lewis rats
[1] = system: ACL-transection (ACLT) model; test: SF lavage lubricin levels by sandwich ELISA, ACL-transection model, Example 3; details: etanercept-treated ACLT joints vs non-treated ACLT joints, 0.5 mg/kg subcutaneously days 1, 3, 5, 7, 9, 11, 13, 2 weeks following ACLT
Description: (§1) The following reagents and methods were used to evaluate inhibition of the effects of TNF-α by etanercept and the preservation of joint lubrication and decrease cartilage damage following an ACL injury. ACL-transection (ACLT) model and entanercept administration: Male Lewis rats 7-8 weeks were assigned to either an ACL-transection group (n=5), etanercept-treated ACL-transection group (n=5) or a sham-group (n=4). Etanercept was given subcutaneously at 0.5 mg/kg on days 1, 3, 5, 7, 9, 11, and 13 following ACLT. At 14 days following surgery, ACLT, contralateral (CL) and sham (S) joints were harvested and lavaged. Lavaging was performed by injecting 100 μl in the joint capsule, flexing and extending the joint for ten times and aspirating 50 μl of fluid. SF Lubricin levels: Lubricin levels were determined using sandwich ELISA employing a lubricin-specific monoclonal antibody, and peanut agglutinin (PNA). Ex-vivo joint μ: Articular joints' μ values were determined using modified Stanton pendulum (Elsaid K A et al, Arthritis Rheum 2007; 56:108-116). sGAG levels in SF lavages: Total sGAG levels were determined by Alcian blue binding assay.

[2] = system: ACL-transection (ACLT) model; test: Ex-vivo joint coefficient of friction (μ), modified Stanton pendulum, ACL-transection model, Example 3; details: etanercept-treated ACLT joints vs non-treated ACLT joints; 0.5 mg/kg subcutaneously days 1-13; 2 weeks following ACLT
Description: as §1

[3] = system: ACL-transection (ACLT) model; test: sGAG levels in SF lavages by Alcian blue binding assay, ACL-transection model, Example 3; details: etanercept-treated vs non-treated joints; 0.5 mg/kg subcutaneously days 1-13; 2 weeks following ACLT
Description: as §1

ACL-transection model [4] = test: SF lavage lubricin levels by sandwich ELISA, early vs late etanercept, ACL-transection model, Example 4; details: 28 days following transection
Description: (§2) Etanercept was administered to animals, and condroprotection was evaluated using an ACL-transection model. Male Lewis rats 7-8 weeks were assigned to either an ACL-transection group (n=5), 2 etanercept-treated ACLT groups (n=12, 6 in each group) or a sham surgery group (n=4). Etanercept was given subcutaneously at 0.5 mg/kg on days 8, and 15 following transection (Treatment A) or on days 15 and 22 (Treatment B). At 28 days following transection, ACL-transected (ACLT), contralateral (CL) and sham joints were harvested and lavaged. Lavaging was performed by injecting 50 μl of normal saline in the joint capsule, flexing and extending the joint for ten times and then aspirating 30 μl of fluid.
(§3) SF lubricin levels were determined using a sandwich ELISA employing a lubricin-specific monoclonal antibody such as 9G3, and peanut agglutinin. Surface-associated lubricin coverage was calculated from 9G3-stained histological specimens. Quantitiation of lubricin staining intensity was calculated using Image Pro-Plus software (Media Cybernetics, MD, USA) with pre-determined threshold parameters and expressed as percentage of lubricin surface coverage. An average of lubricin surface coverage of the medial and lateral regions of femur and tibial cartilage surfaces was calculated.

ACL-transection model [5] = test: Surface-associated lubricin coverage from 9G3-stained histological specimens, ACL-transection model, Example 4
Description: as §2, §3

ACL-transection model [6] = test: Ex-vivo joint coefficient of friction (μ), modified Stanton pendulum, ACL-transection model, Example 4; details: 28 days following transection

## etanercept
[1]
  Lubricin SF lavage levels: significantly (p<0.001) higher
[1]; listed as ENBREL™
  Lubricin SF lavage levels: upregulation of lubricin
[2]
  ex-vivo joint coefficient of friction (μ): significantly (p=0.021) lower
[3]
  sGAG SF lavage levels: significantly (p<0.001) lower
ACL-transection model [4]; Treatment A (0.5 mg/kg s.c. days 8 and 15), ACLT joints, vs ACLT control and treatment B
  SF lavage lubricin levels: significantly (p<0.01) higher
ACL-transection model [4]; contralateral (CL) joints, treatments A and B vs other groups
  SF lavage lubricin levels in CL joints: comparable across the different groups
ACL-transection model [5]; contralateral (CL) joints, treatments A and B vs other groups, 28 days following transection
  Lubricin coverage in the CL joints: comparable across the different groups
ACL-transection model [5]; inflamed rat joint following an ACL injury, ENBREL alone
  lubricin layer in the superficial zone: reestablishes some of the lubricin layer in the superficial zone
ACL-transection model [5]; untreated ACLT joints compared to treatments A and B (0.5 mg/kg s.c.), 28 days following transection
  Lubricin coverage of articular surfaces (percentage surface coverage): significantly (p<0.01) lower than in treatment-A, treatment-B; also recorded: significantly (p<0.01) lower in the ACLT joints compared to treatments A, B
ACL-transection model [6]; Treatment A (0.5 mg/kg s.c. days 8 and 15), ACLT joints
  mean coefficient of friction (μ): 6.5*10^−4
ACL-transection model [6]; Treatment A (0.5 mg/kg s.c. days 8 and 15), CL joints
  mean coefficient of friction (μ): 4.7*10^−4
ACL-transection model [6]; Treatment B (0.5 mg/kg s.c. days 15 and 22), ACLT joints
  mean coefficient of friction (μ): 6.6*10^−4
ACL-transection model [6]; Treatment B (0.5 mg/kg s.c. days 15 and 22), CL joints
  mean coefficient of friction (μ): 4.9*10^−4
ACL-transection model [6]; treatments A and B
  joints' μ values, treatments A and B vs untreated ACLT and sham joints: lower than the μ values of ACLT joints
